Laboratory results reported in EP1144368B1, “ACETYLENIC ALPHA-AMINO ACID-BASED SULFONAMIDE HYDROXAMIC ACID TACE INHIBITORS” (priority 1999, dated 2000).
Structures can show the parent of a compound that is named as a salt.

Test system: THP-1 cells
Test: THP-1 Soluble Protein Assay (LPS-stimulated; ELISA of TNF-a, TNF-R p75/80, TNF-R p55/60, IL-8)
Type: cell-based, human
Conditions: Homo sapiens, THP-1, 3 µM; read-out: THP % Inhibition @ 3µM
Experimental: Each vial of cells are cultured for about two weeks prior to being used for an assay and then are used for only 4 to 6 weeks to screen compounds.
Plates are placed into an incubator set at 5% CO2 and at 37° C. After 4 hours of incubation, 300 ml/well of tissue culture supernatant (TCS) is removed for use in an TNF-a ELISA.
Percent change in each soluble protein evaluated from the "vehicle positive control" was calculated for each compound concentration with the following formula: % Change =(pg/ml (compound) - pg/ml (veh pos control))/(pg/ml (veh pos control) - pg/ml (veh neg control))x 100 [formula]
For the soluble protein (TNF-a, p75/80, p55/60, IL-8) studies under stimulated conditions, the mean pg/ml of duplicate wells were determined and the results expressed as percent change from "vehicle positive control".

| SMILES | inhibition at 3 µM |
| --- | --- |
| CC#CCOc1ccc(S(=O)(=O)N2C[C@H](CC(=O)NCCN(C)C)SC(C)(C)[C@@H]2C(=O)NO)cc1 [Example 284, (3S,6S)-4-{[4-(2-Butynyloxy)phenyl]sulfonyl}-6-(2-{[2-(dimethylamino)ethyl]amino}-2-oxoethyl)-N-hydroxy-2,2-dimethyl-3-thiomorpholinecarboxamide] | 88% |
| CC#CCOc1ccc(S(=O)(=O)N2CCCSC[C@@H]2C(=O)NO)cc1 [Example 174] | 80% |
| CC#CCOc1ccc(S(=O)(=O)N2CCCN(C(=O)c3ccccc3)CC2C(=O)NO)cc1 (stereo not shown) [Example 49, 4-Benzoyl-1-(4-but-2-ynyloxy-benzenesulfonyl)-[1,4]diazepane-2-carboxylic acid hydroxyamide] | 32% |
| CC#CCOc1ccc(S(=O)(=O)N2C[C@H](C)SC(C)(C)[C@@H]2C(=O)NO)cc1 [Example 272, (3S,6S)-4-{[4-(2-Butynyloxy)phenyl]sulfonyl}-N-hydroxy-2,2,6-trimethyl-3-thiomorpholinecarboxamide] | 92% |
| CC#CCOc1ccc(S(=O)(=O)N2CCCSC(C)(C)[C@@H]2C(=O)NO)cc1 [Example 173] | 80% |
| CC#CCOc1ccc(S(=O)(=O)N2C[C@H](CC(=O)OC(C)(C)C)SC(C)(C)[C@@H]2C(=O)NO)cc1 [Example 277, tert-Butyl{(2S,5S)-4-{[4-(2-butynyloxy)phenyl]sulfonyl}-5-[(hydroxyamino)carbonyl]-6,6-dimethylthiomorpholinyl}acetate] | 69% |
| CC#CCOc1ccc(S(=O)(=O)N2CSC(C)(C)[C@@H]2C(=O)NO)cc1 [Example 286, (4S)-3-{(4-(2-Butynyloxy)phenyl]sulfonyl}-N-hydroxy-5,5-dimethyl-1,3-thiazolidine-4-carboxamide] | 73% |

Same assay, conditions: Homo sapiens, THP-1, read-out: THP % inhibition @ 3 µM, 3 µM

| SMILES | inhibition at 3 µM |
| --- | --- |
| CC#CCOc1ccc(S(=O)(=O)N2CCN(C(=O)Nc3cc(Cl)cc(Cl)c3)CC2C(=O)NO)cc1 (stereo not shown) [Example 223, 4-{[4-(2-Butynyloxy)phenyl]sulfonyl}-N-1-(3,5-dichlorophenyl)-N-3-hydroxy-1,3-piperazinedicarboxamide] | 42% |
| CC#CCOc1ccc(S(=O)(=O)N(C)C(CCCSc2ccc(Cl)cc2)C(=O)NO)cc1 (stereo not shown) [Example 213, 2-[{[4-(2-Butynyloxy)phenyl]sulfonyl}(methyl)amino]-5-[(4-chlorophenyl)sulfanyl]-N-hydroxypentanamide] | 87% |
| CC#CCOc1ccc(S(=O)(=O)N(C)C(C(=O)NO)c2ccc(OCCN3CCOCC3)cc2)cc1 (stereo not shown) [Example 179, 2-[{[4-(2-Butynyloxy)phenyl]sulfonyl}(methyl)amino]-N-hydroxy-2-{4-[2-(4-morpholinyl)ethoxy]phenyl}acetamide] | 97% |
| CC#CCOc1ccc(S(=O)(=O)N(CC#CCNC)C(C(=O)NO)C(C)C)cc1 (stereo not shown) [Example 127, 2-{{[4-(2-Butynyloxy)phenyl]sulfonyl}[4-(methylamino)-2-butynyl]amino}-N-hydroxy-3-methylbutanamide] | 83% |
| CC#CCOc1ccc(S(=O)(=O)N2CC[S+]([O-])C(C)(C)C2C(=O)NO)cc1 (single isomer, unassigned) [Example 256] | 92% |
| CC#CCOc1ccc(S(=O)(=O)N(C)C(C(=O)NO)c2ccc(OCCCNS(C)(=O)=O)cc2)cc1 (stereo not shown) [Example 197, 2-[{[4-(2-Butynyloxy)phenyl]sulfonyl}(methyl)amino]-N-hydroxy-2-(4-{3-[(methylsulfonyl)amino]propoxy}phenyl)acetamide] | 94% |
| CC#CCOc1ccc(S(=O)(=O)N2CCN(C(=O)OC)CC2C(=O)NO)cc1 (stereo not shown) [Example 228, 4-(4-But-2-ynyloxy-benzenesulfonyl)-3-hydroxycarbamoyl-piperazine-1-carboxylic acid methyl ester] | 81% |
| CC#CCOc1ccc(S(=O)(=O)N(C)C(C(=O)NO)c2ccc(OCCNC)cc2)cc1 (stereo not shown) [Example 192, 2-({[4-(2-Butynyloxy)phenyl]sulfonyl}(methyl)amino)-N-hydroxy-2-{4-[2-(methylamino)ethoxy]phenyl}acetamide] | 95% |
| CC#CCOc1ccc(S(=O)(=O)N2CCN(C(=O)Nc3ccc(OC)cc3)CC2C(=O)NO)cc1 (stereo not shown) [Example 221, 4-{[4-(2-Butynyloxy)phenyl]sulfonyl}-N-3-hydroxy-N-1-(4-methoxyphenyl)-1,3-piperazinedicarboxamide] | 58% |
| CC#CCOc1ccc(S(=O)(=O)N2CCN(C(=O)N3CCOCC3)CC2C(=O)NO)cc1 (stereo not shown) [Example 215, 1-(4-But-2-ynyloxy-benzenesulfonyl)-4-(morpholine-4-carbonyl)-piperazine-2-carboxylic acid hydroxyamide] | 51% |
| CC#CCOc1ccc(S(=O)(=O)N(C)C(C(=O)NO)c2ccc(OCCCNC(=O)OC(C)(C)C)cc2)cc1 (stereo not shown) [Example 187, tert-Butyl 3-{4-[1-[{[4-(2-butynyloxy)phenyl]sulfonyl}(methyl)amino]-2-(hydroxyamino)-2-oxoethyl]phenoxy}propylcarbamate] | 91% |
| CC#CCOc1ccc(S(=O)(=O)N(C)C(C(=O)NO)C(C)C)cc1 (stereo not shown) [Example 9, 2-[(4-But-2-ynyloxy-benzenesulfonyl)-methyl-amino]-N-hydroxy-3-methyl-butyramide] | 94% |
| CC#CCOc1ccc(S(=O)(=O)N(CCC)C(C(=O)NO)C(C)C)cc1 (stereo not shown) [Example 110, 2-[(4-But-2-ynyloxy-benzenesulfonyl)-propyl-amino]-N-hydroxy-3-methyl-butyramide] | 47% |
| CC#CCOc1ccc(S(=O)(=O)N2CCN(C(=O)CNC(=O)OC(C)(C)C)CC2C(=O)NO)cc1 (stereo not shown) [Example 229, {2-[4-(4-But-2-ynyloxy-bemenesulfonyl)-3-hydroxycarbamoyl-piperazin-1-yl]-2-oxo-ethyl}-carbamic acid tert-butyl ester] | 85% |
| CC(=O)OCC#CCOc1ccc(S(=O)(=O)N2CCSC(C)(C)[C@@H]2C(=O)NO)cc1 [Example 261, 4-[4-({(3S)-3-[(Hydroxyamino)carbonyl]-2,2-dimethylthiomorpholinyl}suffonyl)phenoxy]-2-butynyl acetate] | 92% |
| CC#CCOc1ccc(S(=O)(=O)N2CCSCC2C(=O)NO)cc1 (stereo not shown) [Example 239] | 84% |
| CC#CCOc1ccc(S(=O)(=O)NC(C(=O)NO)c2ccc(OCCN3CCOCC3)cc2)cc1 (stereo not shown) [Example 206, 2-({[4-(2-Butynyloxy)phenyl]sulfonyl}amino)-N-hydroxy-2-{4-[2-(4-morpholinyl)ethoxy]phenyl}acetamide] | 70% |
| CC#CCOc1ccc(S(=O)(=O)N(C)C(C(=O)NO)c2ccc(OCCNC(=O)OC(C)(C)C)cc2)cc1 (stereo not shown) [Example 180, tert-Butyl 2-{4-[1-[{[4-(2-butynyloxy)phenyl]sulfonyl}(methyl)amino]-2-(hydroxyamino)-2-oxoethyl]phenoxy}ethylcarbamate] | 89% |
| CC#CCOc1ccc(S(=O)(=O)NC(C(=O)NO)c2ccc(OCCN3CCN(C(=O)OC(C)(C)C)CC3)cc2)cc1 (stereo not shown) [Example 202, tert-Butyl 4-(2-{4-[1-({[4-(2-butynyloxy)phenyl]sulfonyl}amino)-2-(hydroxyamino)-2-oxoethyl)phenoxy]ethyl)-1-piperazinecarboxylate] | 45% |
| CC#CCOc1ccc(S(=O)(=O)N(C)C(C(=O)NO)c2ccc(OCCCNC(=O)OCCCC)cc2)cc1 (stereo not shown) [Example 195, Butyl 3-{4-[1-[{[4-(2-butynyloxy)phenyl]sulfonyl}(methyl)amino]-2-(hydroxyamino)-2-oxoethyl]phenoxy}propylcarbamate] | 90% |
| CC#CCOc1ccc(S(=O)(=O)N(C)C(C(=O)NO)C(C)(C)SCCN(CC)CC)cc1 (stereo not shown) [Example 142, 2-({[4-(2-Butynyloxy)phenyl]sulfonyl)(methyl)amino]-N-hydroxy-3 methyl-3-{[2-(diethylamino)ethyl]sulfanyl}butanamide] | 89% |
| CC#CCOc1ccc(S(=O)(=O)NC(C(=O)NO)c2ccc(OCCOCCOCCOC)cc2)cc1 (stereo not shown) [Example 209, 2-({[4-(2-Butynyloxy)phenyl]sulfonyl}amino)-N-hydroxy-2-(4-{2-[2-(2-methoxyethoxy)ethoxy]ethoxy}phenyl)acetamide] | 75% |
| C#CCOc1ccc(C(NS(=O)(=O)c2ccc(OCC#CC)cc2)C(=O)NO)cc1 (stereo not shown) [Example 177, 2-({[4-(2-Butynyloxy)phenyl]sulfonyl}amino)-N-hydroxy-2-[4-(2-propynyloxy)phenyl]acetamide] | 64% |
| CC#CCOc1ccc(S(=O)(=O)N(C)C(C(=O)NO)C(C)(C)SCCN2CCN(C)CC2)cc1 (stereo not shown) [Example 141] | 86% |
| CC(C)(C)OC(=O)NCCCCC#CCOc1ccc(S(=O)(=O)N2CCSC(C)(C)[C@@H]2C(=O)NO)cc1 [Example 252, tert-Butyl 7-[4-({(3S)-3-[(hydroxyamino)carbonyl]-2,2-dimethylthiomorpholinyl}sulfonyl)phenoxy]-5-heptynylcarbamate] | 70% |
| CC#CCOc1ccc(S(=O)(=O)N(C)C(C(=O)NO)C(C)(C)SC)cc1 (stereo not shown) [Example 149, 2-[(4-But-2-ynyloxy-benenesulfonyl)-methyl-amino]-N-hydroxy-3-methyl-3-methylsulfanyl-butyramide] | 88% |
| CC#CCOc1ccc(S(=O)(=O)N(C)C(C(=O)NO)c2ccc(OCCN3CCCC3=O)cc2)cc1 (stereo not shown) [Example 184, 2-[{[4-(2-Butynyloxy)phenyl]sulfonyl}(methyl)amino]-N-hydroxy-2-{4-[2-(2-oxo-1-pyrrolidinyl)ethoxy]phenyl}acetamide] | 94% |
| CC#CCOc1ccc(S(=O)(=O)N(CCCN(CC)CC)C(C(=O)NO)C(C)C)cc1 (stereo not shown) [Example 118, 2-{{[4-(2-Butynyloxy)phenyl]sulfonyl}[3-(diethylamino)propyl]amino}-N-hydroxy-3-methylbutanamide] | 77% |
| CC#CCOc1ccc(S(=O)(=O)N(Cc2cccnc2)C(C)C(=O)NO)cc1 (stereo not shown) [Example 33, 2-[(4-But-2-ynyloxy-benzenesulfonyl)-pyridin-3-ylmethyl-amino]-N-hydroxy-propionamide hydrochloride] | 80% |
| CC#CCOc1ccc(S(=O)(=O)N(C)[C@H](CSC)C(=O)NO)cc1 [Example 154] | 90% |
